Seven compounds from PubChem BioAssay (NCI) can be followed below.

Among the test systems are OVCAR-5 ovarian; CCRF-CEM leukemia; UACC-257 melanoma; BT-549 breast; HOP-92 NSCLC; EKVX NSCLC; SF-295 CNS; MCF7 breast; SR leukemia; NCI-H522 lung.
Common to all, as to assay: NCI anticancer screen, dose series, 48 h

The structures appear in SMILES notation. Where “and” joins values, the source holds several entries; their conditions need not be identical. Equal values may be shown once.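 Growth conditions: 96-well plates. Treatment: test compound, 48 hours, 5 concentrations. Analysis: linear interpolation between bracketing concentrations; unreached endpoints set to highest concentration. At the GI50, growth is halved. TGI denotes the concentration required for complete inhibition of growth.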

`Cc1sc(C(=O)c2cncnc2N[C@@H]2C[C@H](COS(N)(=O)=O)[C@@H](O)C2)cc1[C@@H]1NCCc2ccc(Cl)cc21`: the GI50 in the experiment with OVCAR-5 ovarian is 9.43 µM; in the experiment with CCRF-CEM leukemia it was 0.0801 µM; with UACC-257 melanoma it was 0.0793 µM; with BT-549 breast, 12.8 µM; in the experiment with HOP-92 NSCLC, 0.0783 µM; in the experiment with EKVX NSCLC, 8.88 µM. Further, the GI50 in the experiment with SF-295 CNS is 11 µM; in the experiment on MCF7 breast, 0.0138 µM; in the experiment with SR leukemia, 0.547 µM; in the experiment with NCI-H522 lung it was 3.49 µM. In addition, the TGI was determined as 23.6 µM with OVCAR-5 ovarian; 20.1 µM with CCRF-CEM leukemia; 20.1 µM in the experiment with UACC-257 melanoma; 26.6 µM with BT-549 breast; 12.9 µM in the experiment with HOP-92 NSCLC; 25.7 µM in the experiment with EKVX NSCLC. Also, the TGI in the experiment with SF-295 CNS is 23.2 µM; in the experiment on MCF7 breast, 17.3 µM; in the experiment on SR leukemia, 26.3 µM; in the experiment with NCI-H522 lung it was 25.9 µM.
In the case of `CC12OC(CC(O)C1O)n1c3ccccc3c3c4c(c5c6ccccc6n2c5c31)C(=O)N(CCN1CCOCC1)C4=O` (stereo not given), the GI50 was 2.32 µM with OVCAR-5 ovarian; 1.16 µM with CCRF-CEM leukemia; 1.97 µM in the experiment on UACC-257 melanoma; 1.61 µM in the experiment with BT-549 breast; 2.03 µM in the experiment with HOP-92 NSCLC; 1.48 µM in the experiment with EKVX NSCLC. The GI50 with SF-295 CNS was 0.598 µM; in the experiment on MCF7 breast, 0.242 µM; in the experiment with SR leukemia, 0.176 µM; with NCI-H522 lung, 0.704 µM. Further, the TGI stood at 9.65 µM in the experiment with OVCAR-5 ovarian; 8.95 µM with CCRF-CEM leukemia; 7.64 µM with UACC-257 melanoma; 8.21 µM with BT-549 breast; 9.4 µM with HOP-92 NSCLC; 8.94 µM in the experiment on EKVX NSCLC. The TGI came out at 3.17 µM with SF-295 CNS, 8.02 µM in the experiment on MCF7 breast, 6.76 µM with SR leukemia and 3.63 µM in the experiment with NCI-H522 lung.
For the compound `CCN1CCN(c2nc(C)cc(NCc3cc(Nc4ccnc5cc(Cl)ccc45)ccc3F)n2)CC1`, the GI50 in the experiment with OVCAR-5 ovarian is 2.2 µM; in the experiment with CCRF-CEM leukemia, 2.06 µM; with UACC-257 melanoma it was 1.89 µM; with BT-549 breast it was 1.62 µM; with HOP-92 NSCLC, 1.21 µM; with EKVX NSCLC, 3.03 µM. Further, the GI50 is 1.05 µM with SF-295 CNS, 1.81 µM in the experiment on MCF7 breast, 1.3 µM with SR leukemia and 3.02 µM in the experiment with NCI-H522 lung. The TGI amounted to 6.71 µM with OVCAR-5 ovarian; 15.2 µM in the experiment with CCRF-CEM leukemia; 3.79 µM with UACC-257 melanoma; 4.28 µM in the experiment on BT-549 breast; 4.07 µM in the experiment on HOP-92 NSCLC; 14 µM in the experiment on EKVX NSCLC. The TGI in the experiment on SF-295 CNS is 2.61 µM; in the experiment with MCF7 breast, 5.31 µM; in the experiment on SR leukemia, 5.89 µM; in the experiment on NCI-H522 lung, 7.77 µM.
Take `C=C1C(=O)O[C@H]2[C@H]1CC/C(COC(=O)c1cccnc1N)=C\CC[C@@]1(C)O[C@@H]21`: the GI50 in the experiment with OVCAR-5 ovarian is 6.95 µM; with CCRF-CEM leukemia it was 0.345 µM; with UACC-257 melanoma, 2.32 µM; in the experiment with BT-549 breast, 2.17 µM; in the experiment with HOP-92 NSCLC, 0.282 µM; in the experiment on EKVX NSCLC, 3.21 µM. The GI50 in the experiment on SF-295 CNS is 4.15 µM; in the experiment with MCF7 breast, 0.553 µM; with SR leukemia it was 0.539 µM; with NCI-H522 lung, 0.379 µM. Moreover, the TGI came out at 21.7 µM in the experiment on OVCAR-5 ovarian; 2.47 µM with CCRF-CEM leukemia; 12.6 µM with UACC-257 melanoma; 5.6 µM in the experiment on BT-549 breast; 2.63 µM in the experiment with HOP-92 NSCLC; 25.1 µM in the experiment on EKVX NSCLC. Besides, the TGI in the experiment with SF-295 CNS is 16 µM; with MCF7 breast, 14.6 µM; in the experiment on SR leukemia it was 10.4 µM; with NCI-H522 lung, 2 µM.
For the compound `Cc1cc(O)ccc1C1=NN(c2ccc(S(N)(=O)=O)cc2)C(=O)CC1`, the GI50 with OVCAR-5 ovarian was over 100 µM; in the experiment with CCRF-CEM leukemia, 9.88 µM and 10.5 µM; in the experiment on UACC-257 melanoma, 31.3 µM and > 100 µM; in the experiment with BT-549 breast, 1.49 µM; with HOP-92 NSCLC, 11.1 µM and 18.5 µM; in the experiment on EKVX NSCLC, 3.87 µM and 19.2 µM. Further, the GI50 in the experiment on SF-295 CNS is 2.21 µM and 4.82 µM; in the experiment with MCF7 breast, 2.26 µM and 8.23 µM; in the experiment on SR leukemia, 1.05 µM and 1.12 µM; in the experiment with NCI-H522 lung it was 1.12 µM and 2.48 µM. Besides, the TGI was over 100 µM in the experiment on OVCAR-5 ovarian; 50 µM and > 100 µM in the experiment with CCRF-CEM leukemia; 50 µM and > 100 µM in the experiment with UACC-257 melanoma; 43.6 µM with BT-549 breast; 50 µM and 75.5 µM in the experiment on HOP-92 NSCLC; 50 µM and > 100 µM with EKVX NSCLC. The TGI in the experiment on SF-295 CNS was 34.7 µM and 24.3 µM; in the experiment on MCF7 breast, 50 µM and > 100 µM; with SR leukemia, 50 µM and 6.78 µM; in the experiment with NCI-H522 lung, 33.5 µM and > 100 µM.
For the compound `NC(=O)c1c(NC(=O)c2cccs2)sc2c1CCC(=O)C2`, the GI50 in the experiment on OVCAR-5 ovarian is 2.68 µM; in the experiment on CCRF-CEM leukemia, 0.458 µM; with UACC-257 melanoma, 2.73 µM; with BT-549 breast, 2.08 µM; in the experiment on HOP-92 NSCLC, 1.38 µM; in the experiment on EKVX NSCLC, 2.54 µM. Besides, the GI50 with SF-295 CNS was 2.86 µM; in the experiment with MCF7 breast it was 2.48 µM; with SR leukemia it was 1.43 µM; with NCI-H522 lung, 0.892 µM. For the same compound, the TGI is 9.23 µM with OVCAR-5 ovarian; over 100 µM with CCRF-CEM leukemia; 7.08 µM with UACC-257 melanoma; 8.41 µM in the experiment with BT-549 breast; 4 µM in the experiment on HOP-92 NSCLC; 87.1 µM with EKVX NSCLC. The TGI was 9.42 µM with SF-295 CNS, 18.7 µM in the experiment on MCF7 breast, over 100 µM in the experiment on SR leukemia and 7.92 µM in the experiment with NCI-H522 lung.
Regarding `C=CCn1c2ccccc2c2c3c(c4c5ccccc5n(CC=C)c4c21)C(=O)N(O)C3=O`, the GI50 in the experiment on OVCAR-5 ovarian was 5.29 µM; in the experiment with CCRF-CEM leukemia, 0.971 µM; in the experiment with UACC-257 melanoma it was 13.5 µM; in the experiment with BT-549 breast, 3.27 µM; with HOP-92 NSCLC it was 7.13 µM; in the experiment with EKVX NSCLC, 6.34 µM. For the same compound, the GI50 is 2.62 µM with SF-295 CNS, 0.674 µM with MCF7 breast, 0.363 µM with SR leukemia and 1.09 µM in the experiment on NCI-H522 lung. Also, the TGI in the experiment with OVCAR-5 ovarian was 29.6 µM; in the experiment with CCRF-CEM leukemia, 7.1 µM; in the experiment with UACC-257 melanoma, 54.6 µM; with BT-549 breast it was 27.9 µM; in the experiment with HOP-92 NSCLC, 25.5 µM; in the experiment on EKVX NSCLC, 30.6 µM. In addition, the TGI in the experiment on SF-295 CNS is 8.62 µM; in the experiment on MCF7 breast, 29.9 µM; with SR leukemia, 5.67 µM; in the experiment with NCI-H522 lung it was 2.56 µM.
